Test results as given in ChEMBL document CHEMBL3227990, “Aminotetralins as narcotic antagonists. Synthesis and opiate-related activity of 1-phenyl-2-aminotetralin derivatives” (J Med Chem, 1979).

Legend:
Mus musculus [1] = organism: Mus musculus; assay: Toxicity in mouse assessed as convulsant activity; format: organism-based; settings: in vivo
Mus musculus [2] = organism: Mus musculus; assay: Inhibition of morphine-induced analgesia in mouse assessed as dose required for 50% antagonism of analgesia by tail flick test; format: functional
Mus musculus [3] = organism: Mus musculus; assay: Analgesic activity in mouse by hot plate test; format: functional

| Structure (SMILES) | Activity (Mus musculus [1]) | AD50 (Mus musculus [2]) | ED50 (Mus musculus [3]) [mg/kg] |
| --- | --- | --- | --- |
| CN(CC1CC1)[C@@H]1CCc2ccccc2[C@@]1(O)c1ccccc1.Cl | Toxic | >=30 mg kg-1 | – |
| CO[C@@]1(c2ccccc2)c2ccccc2CC[C@H]1N(C)CC1CC1.Cl | – | 33.5 mg/kg | ≥ 50 |
| CCC(=O)O[C@@]1(c2ccccc2)c2ccccc2CC[C@H]1N(C)CC1CC1.Cl | – | >=100 mg kg-1 | 17.8 |
| CN1CC[C@]23c4c5ccc(O)c4O[C@H]2[C@@H](O)C=C[C@H]3[C@H]1C5 [MORPHINE] | – | – | 1.1 |
